Experiment [1] has as its system Hemophilic mice (VIII-KO mice). In words: Mouse-tail bleeding time model in hemophilic mice. It is filed as in vivo. The conditions noted are these: for bleeding time: 150, 225, 300, 375 μg/kg sub-cutis at the flank or topically on the tail, dose dependent, vs PBS control. How it is done: FIGS. 3A-3D include vertical bar graphs showing that modified heparanase procoagulant peptides of the invention decrease bleeding in hemophilic mice. Hemophilic mice (VIII-KO mice; C57BL/6 background, strain name B6;129S4-F8tm1Kaz/J) were studied. (3A) Peptides 16 or 16AC were injected subcutaneously at the flank in doses 150, 225, 300, 375 μg/kg. A mouse-tail bleeding time model was performed. The peptides were dissolved in phosphate-buffered saline (PBS). Control (0) group was injected with the vehicle phosphate buffered saline (PBS). (3D) is identical to (3A) with the exception that peptide 16 C […] and peptide 16A […] were also administered in the disclosed doses. In a similar study, the peptides were topically applied on the tail immediately following the incision of the tail at a rate of a drop every 5 seconds (3B). […] Mann-Whitney U test was used. Results represent mean±SD. *p<0.05.
Hemophilic mice (VIII-KO mice; C57BL/6 background, strain name B6;129S4-F8tm1Kaz/J) were studied. Peptides 16 or 16AC were injected sub-cutis at the flank in doses 150, 225, 300, 375 μg/kg. A mouse-tail bleeding time model was performed. The peptides were dissolved in phosphate-buffered saline (PBS). Control (0) group was injected with the vehicle phosphate buffered saline (PBS) (FIGS. 3A and 3D). In a similar study, the peptides were topically applied on the tail immediately following the incision of the tail at a rate of a drop every 5 seconds (FIG. 3B).

The test system of a further experiment is HUVEC cells. In words: HUVEC migration, scratch (artificial gap) assay. Format: cell-based, human. The conditions noted are these: 10 μg/ml; 4 hours; compared to the control and the non-modified peptide 16. The method, then:
FIG. 11 includes micrographs showing that procoagulant peptides increase endothelial cells migration. HUVEC cells were seeded in 35 mm dishes. At confluence of 90%, artificial gap was created using 1,000-μl standard pipette tip. Plate was washed twice with PBS to remove cell debris and incubated with either peptide 16 or 16AC (10 μg/ml). Representative photos of the scratched area after 4 hours are presented. Images were visualized through ×50 magnitude, with 0.82 MDC objective lens, captured with a Nikon E995 digital camera (Nikon, Tokyo, Japan), and processed with Adobe Photoshop software (Adobe Systems, San Jose, CA, USA).
Briefly, HUVEC cells were seeded in 35 mm dishes. At confluence of 90%, artificial gap was created using 1,000 μl standard pipette tip. Plate was washed twice with PBS to remove cell debris and incubated with either peptide 16 or 16AC (10 μg/ml).

In experiment [2] the test system is HEK-293 cells with full length TF (TF) or truncated TF. In words: p-p38 signaling in TF-transfected HEK-293 cells (western blot). Format: cell-based. The conditions noted are these: 2 hours; cells with truncated TF devoid of the intracellular part. How it is done:
FIG. 12 includes a vertical bar graph and a micrograph of a western blot analysis. Procoagulant peptide 16AC was added for 2 hours to transfected HEK-293 cells with full length TF (TF) or truncated TF devoid of the intracellular part (ΔTF). […] Control—vector only (Vo); transfection with the empty plasmid, with no additional DNA.
Additionally, the inventor explored binding interaction between the procoagulant peptide of the invention and TF. Briefly, the procoagulant peptide 16AC was added for 2 hours to transfected HEK-293 cells with full length TF (TF) or truncated TF devoid of the intracellular part (ATF).
For orientation: Immunoblotting shows a protein as a band on a membrane.

As for “GSKRRKLRVYLHCT [Peptide 16, peptide comprising the procoagulant domain of heparanase, non-modified]”, the bleeding time entry in experiment [1] was “significant decrease in bleeding time”.

Turning to “acetyl-GSKRRKLRVYLHCT-amid (Ac-GSKRRKLRVYLHCT-NH2) [Peptide 16AC, peptide 16 comprising a C-terminal amid group and an N-terminal acetyl group]”, the bleeding time entry in experiment [1] is given as “significant decrease in bleeding time”. Also, the “bleeding time reduction, comparison between peptides” value in experiment [1] (subcutaneous 150-375 μg/kg, FIG. 3D) is given as “improved bleeding reduction”. Also, the “migrating HUVEC cells” value in the experiment with HUVEC cells was “substantial increase in migrating HUVEC cells”. In addition, in experiment [2], the “increase in p-p38 intracellular signaling” value is “not observed”.

The values above are taken from patent publication US12686704B2, “Procoagulant peptides and use thereof” (RAMBAM MED-TECH LTD., priority 2021, dated 2026).
